For data set [1] the following is noted: cited from earlier work.
In data set [2] the test system is prostate tumor-bearing TRAMP mice. As to conditions: 30 min dynamic PET, n = 3/group.

Bounds are passed on as bounds.

`OC[C@H]1OC(O)[C@H](F)[C@@H](O)[C@@H]1O` (stereo partly drawn) [^18F-FDG, ^18F-fluorodeoxyglucose]: in data set [1] (after cardiac administration), the “Time to peak in circulation and distribute to half its concentration” value is no more than 5 s. For the same molecule, the “Time to reach a plateau in tissues” value in data set [1] is listed as no more than 30 min. Further, the “Time-dependent blood distribution by dynamic PET: JV versus RO injection” value in data set [2] was “consistent circulation”.

The values above are taken from publication PMC11364845 (Scientific Reports, 2024).
